Values of other authors in patent US6784266B2, “Dual stimuli-responsive hydrogels and their synthetic methods” (Korea Institute of Science and Technology, priority 2002, dated 2004).

Conditions: pKa stated for the sulfonamide reagent; no measurement method described

pKa: 6.7
SMILES: COc1ccc(NS(=O)(=O)c2ccc(N)cc2)nn1 [sulfamethoxypyridazine]
